# Target: T1, KRAS G12C 1-169, his-tagged protein, GDP-loaded (Homo sapiens, UniProt P01116, G12C)
# T1 construct: KRAS G12C 1-169, his-tagged protein, GDP-loaded; His tag
# Assay: Biochemical assay: covalent binding to KRAS G12C measured by mass spectrometry (RapidFire/TOF or Q-Exactive)
# Details: covalent binding to KRAS G12C after a thirty minute incubation period
# Method: Test compounds were prepared as 10 mM stock solutions in DMSO (Fisher cat #BP-231-100). KRAS G12C 1-169, his-tagged protein, GDP-loaded was diluted to 0.5 μM in buffer (20 mM Hepes, 150 mM NaCl, 1 mM MgCl2). Compounds were tested for activity as follows:
# Compounds were diluted to 50× final test concentration in DMSO in 96-well storage plates. Compound stock solutions were vortexed before use and observed carefully for any sign of precipitation. Dilutions were as follow: • For 100 μM final compound concentration, compounds were diluted to 5000 μM (5 μL 10 mM compound stock+5 μL DMSO and mixed well by pipetting. • For 30 μM final compound concentration, compounds were diluted to 1500 μM (3 μL 10 mM compound stock+17 μL DMSO) and mixed well by pipetting. • For 10 μM final compound concentration, compounds were diluted to 500 μM (2 μL 10 mM compound stock+38 μL DMSO) and mixed well by pipetting. 49 μL of the stock protein solution was added to each well of a 96-well PCR plate (Fisher cat #1423027). 1 μl of the diluted 50× compounds were added to appropriate wells in the PCR plate using 12-channel pipettor. Reactions were mixed carefully and thoroughly by pipetting up/down with a 200 μL multi-channel pipettor. The plate was sealed well with aluminum plate seal, and stored in drawer at room temperature for 10 minutes, 30 minutes, 2 hours or 24 hours. 5 μL of 2% formic acid (Fisher cat #A117) in de-ionized H2O was then added to each well followed by mixing with a pipette. The plate was then resealed with aluminum seal and stored on dry ice until analyzed as described below.
# The above described assays were analyzed by mass spectrometry according to one of the following two procedures:
# The MS instrument is set to positive polarity, 2 GHz resolution, and low mass (1700) mode and allowed to equilibrate for 30 minutes. The instrument is then calibrated, switched to acquisition mode and the appropriate method loaded.
# After another 30 minute equilibration time, a blank batch (i.e., buffer) is run to ensure equipment is operating properly. The samples are thawed at 37° C. for 10 minutes, briefly centrifuged, and transfer to the bench top. Wells A1 and H12 are spiked with 1 μL 500 μM internal standard peptide, and the plates centrifuged at 2000×g for 5 minutes. The method is then run and masses of each individual well recorded.
# The masses (for which integration data is desired) for each well are pasted into the platemap and exported from the analysis. Masses for the internal standards are exported as well. The data at 50 ppm is extracted for the +19 charge state, and identity of well A1 is assigned using the internal standard spike and integrated. Peak data is exported as a TOF list and the above steps are repeated individually, for the +20, 21, 22, 23, 24, and 25 charge states.
# The masses and peak intensities of KRAS G12C protein species were measured using a Dionex RSLCnano system (Thermo Scientific) connected to a Q Exactive Plus mass spectrometer (Thermo Scientific).
# […] of sample was each loaded onto a Aeris™ 3.6 μm WIDEPORE C4 200 Å, LC Column 50×2.1 mm column maintained at 40° C. at a flow rate of 600 μL/min with 20% Solvent A (0.1% formic acid in H2O) and 80% Solvent B (0.1% formic acid in acetonitrile). The liquid chromatography conditions were 20% solvent B for 1 minute, 20% to 60% solvent B for 1.5 minutes, 60% to 90% solvent for 0.5 minute, 90% solvent B for 0.2 minute, 90% to 20% solvent B for 0.2 minute, and then equilibrated for 1.6 minute before the following sample injection. The flow rate was maintained at 600 μL/min throughout the sample analysis.
# The mass spectrometer was operated in profile mode at a resolution of 17500, 5 microscans, using 50 msec max injection time and an AGC target of 1×10^6, and a full mass range from 800-1850 m/z was recorded. The HCD trapping gas was optimized for maximum sensitivity for intact proteins. […]
row,Structure (SMILES),Binding %
1,"C=CC(=O)N1CC(Cc2nc3ccc(-c4cc(O)cc5ccccc45)cc3c(=O)n2CCCN(C)C)C1 [Compound 27, 2-((1-acryloylazetidin-3-yl)methyl)-3-(3-(dimethylamino)propyl)-6-(3-hydroxynaphthalen-1-yl)quinazolin-4(3H)-one]",+ (+ indicates binding activity up to 10%)
2,"C=CC(=O)N1CC(c2nc(N3CCC(O)C3)c3cc(-c4cc(O)cc5ccccc45)ccc3n2)C1 (centres unmarked) [Compound 34, 1-(3-(6-(3-hydroxynaphthalen-1-yl)-4-(3-hydroxypyrrolidin-1-yl)quinazolin-2-yl)azetidin-1-yl)prop-2-en-1-one]",+ (+ indicates binding activity up to 10%)
3,"C=CC(=O)N1CC(c2nc3ccc(-c4cc(O)cc5ccccc45)cc3c(=O)n2C)C1 [Compound 2, 2-(1-acryloylazetidin-3-yl)-6-(3-hydroxynaphthalen-1-yl)-3-methylquinazolin-4(3H)-one]",+++ (+++ indicates binding activity greater than 50%)
4,"C=CC(=O)N1CC(c2nc3ccc(-c4c(C)ccc5[nH]ncc45)cc3c(=O)n2CCCN(C)C)C1 [Compound 5, 2-(1-acryloylazetidin-3-yl)-3-(3-(dimethylamino)propyl)-6-(5-methyl-1H-indazol-4-yl)quinazolin-4(3H)-one]",++ (++ indicates binding activity from 10 to 50%)
5,"C=CC(=O)N1CC(c2nc3ccc(-c4c(C)ccc5[nH]ncc45)cc3c(=O)n2C)C1 [Compound 3, 2-(1-acryloylazetidin-3-yl)-3-methyl-6-(5-methyl-1H-indazol-4-yl)quinazolin-4(3H)-one]",++ (++ indicates binding activity from 10 to 50%)
6,"C=CC(=O)N1CC(c2nc(-n3ccnc3)c3cc(-c4cc(O)cc5ccccc45)ccc3n2)C1 [Compound 30, 1-(3-(6-(3-hydroxynaphthalen-1-yl)-4-(1H-imidazol-1-yl)quinazolin-2-yl)azetidin-1-yl)prop-2-en-1-one]",+ (+ indicates binding activity up to 10%)
7,"C=CC(=O)N1CC(c2nc(N3CC(N(C)C)C3)c3cc(-c4c(C)ccc5[nH]ncc45)ccc3n2)C1 [Compound 32, 1-(3-(4-(3-(dimethylamino)aze-tidin-1-yl)-6-(5-methyl-1H-indazol-4-yl)quinazolin-2-yl)azetidin-1-yl)prop-2-en-1-one]",+ (+ indicates binding activity up to 10%)
8,"C=CC(=O)N1CC(c2nc(NCCc3ncccn3)c3cc(-c4c(C)ccc5[nH]ncc45)ccc3n2)C1 [Compound 33, 1-(3-(6-(5-methyl-1H-indazol-4-yl)-4-((2-(pyrimidin-2-yl)ethyl)amino)quin-azolin-2-yl)azetidin-1-yl)prop-2-en-1-one]",+ (+ indicates binding activity up to 10%)
9,"C=CC(=O)N1CC(c2nc3ccc(-c4cc(O)cc5ccccc45)cc3c(=O)n2CCCN(C)C)C1 [Compound 4, 2-(1-acryloylazetidin-3-yl)-3-(3-(dimethylamino)propyl)-6-(3-hydroxynaphthalen-1-yl)quinazolin-4(3H)-one]",+++ (+++ indicates binding activity greater than 50%)
10,"C=CC(=O)N1CC(c2nc(NCC(=O)N3CC(N(C)C)C3)c3cc(-c4cc(O)cc5ccccc45)ccc3n2)C1 [Compound 21, 1-(3-(4-((2-(3-(dimethylamino)azetidin-1-yl)-2-oxoethyl)amino)-6-(3-hydroxynaphthalen-1-yl)quinazolin-2-yl)azetidin-1-yl)prop-2-en-1-one]",+ (+ indicates binding activity up to 10%)
11,"C=CC(=O)N1CC(c2nc(NC3CCN(C4CC4)CC3)c3cc(-c4c(C)ccc5[nH]ncc45)ccc3n2)C1 [Compound 31, 1-(3-(4-((1-cyclopropylpiperi-din-4-yl)amino)-6-(5-methyl-1H-indazol-4-yl)quinazolin-2-yl)azetidin-1-yl)prop-2-en-1-one]",+ (+ indicates binding activity up to 10%)
12,"C=CC(=O)N1CC(c2nc3ccc(-c4cc(O)cc5ccccc45)cc3c(=O)[nH]2)C1 [Compound 1, 2-(1-acryloylazetidin-3-yl)-6-(3-hydroxynaphthalen-1-yl)quinazolin-4(3H)-one]",++ (++ indicates binding activity from 10 to 50%)
13,"C=CC(=O)N1CC(c2nc3ccc(-c4cccc5[nH]nc(I)c45)cc3c(=O)n2CCCN(C)C)C1 [Compound 6, 2-(1-acryloylazetidin-3-yl)-3-(3-(dimeth-ylamino)propyl)-6-(3-iodo-1H-indazol-4-yl)quinazolin-4(3H)-one]",+ (+ indicates binding activity up to 10%)
14,"C=CC(=O)N1CC(c2nc3ccc(-c4cccc5[nH]nc(C)c45)cc3c(=O)n2CCCN(C)C)C1 [Compound 7, 2-(1-acryloylazetidin-3-yl)-3-(3-(dimeth-ylamino)propyl)-6-(3-methyl-1H-indazol-4-yl)quinazolin-4(3H)-one]",+ (+ indicates binding activity up to 10%)

# — patent publication US11136308B2, “Substituted quinazoline and quinazolinone compounds and methods of use thereof” (Araxes Pharma LLC, priority 2017, dated 2021)
